In ChEMBL document CHEMBL1201862, “PubChem BioAssay data set” (2004):
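1) Cells in 96-well plates. 2) Compound, 48 h, 5 concentrations. 3) Linear interpolation between surrounding doses. 4) Unreached endpoint = highest concentration. At the GI50, growth is halved.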 Calls of active or inactive are those of the source. Cut-off read from the data, not from the text of the source: active = GI50 up to about 1.1 µM and inactive = higher.

Tests used:
Assay in all cases: DTP human tumour cell line panel, 48 h
SF-268 = system: SF-268
DU-145 = system: DU-145
U-251 = system: U-251
786-0 = system: 786-0
TK-10 = system: TK-10
HL-60 = system: HL-60
BT-549 = system: BT-549
KM12 = system: KM12
K562 = system: K562
HCT-15 = system: HCT-15
MDA-MB-435 = system: MDA-MB-435
NCI-H522 = system: NCI-H522
Hs-578T = system: Hs-578T
MCF7 = system: MCF7
SF-295 = system: SF-295
NCI-H23 = system: NCI-H23
MDA-MB-231 = system: MDA-MB-231
UO-31 = system: UO-31
CCRF-CEM = system: CCRF-CEM
SN12C = system: SN12C
SNB-19 = system: SNB-19
NCI/ADR-RES = system: NCI/ADR-RES
RPMI-8226 = system: RPMI-8226
A549 = system: A549
SR = system: SR
COLO 205 = system: COLO 205
OVCAR-4 = system: OVCAR-4
T47D = system: T47D
A498 = system: A498
NCI-H226 = system: NCI-H226
UACC-62 = system: UACC-62
ACHN = system: ACHN
HCC 2998 = system: HCC 2998
OVCAR-8 = system: OVCAR-8
Malme-3M = system: Malme-3M
HT-29 = system: HT-29
SF-539 = system: SF-539
HCT-116 = system: HCT-116
NCI-H460 = system: NCI-H460
OVCAR-3 = system: OVCAR-3
SK-MEL-28 = system: SK-MEL-28
SK-OV-3 = system: SK-OV-3
SK-MEL-5 = system: SK-MEL-5
SW-620 = system: SW-620
LOX IMVI = system: LOX IMVI
UACC-257 = system: UACC-257
MOLT-4 = system: MOLT-4
IGROV-1 = system: IGROV-1
HOP-62 = system: HOP-62
EKVX = system: EKVX
OVCAR-5 = system: OVCAR-5
RXF 393 = system: RXF 393
PC-3 = system: PC-3
SNB-75 = system: SNB-75
SK-MEL-2 = system: SK-MEL-2
M14 = system: M14
HOP-92 = system: HOP-92
CAKI-1 = system: CAKI-1

Measured: GI50

COC(=O)N[C@H](C(=O)O)C(C)O[Si](C)(C)C(C)(C)C (stereo partly specified)
inactive: SF-268 > 100 µM | DU-145 > 100 µM | U-251 > 100 µM | 786-0 > 100 µM | TK-10 > 100 µM | HL-60 > 100 µM | BT-549 > 100 µM | KM12 > 100 µM | K562 > 100 µM | MDA-MB-435 > 100 µM | NCI-H522 > 100 µM | Hs-578T > 100 µM | MCF7 > 100 µM | SF-295 > 100 µM | NCI-H23 > 100 µM | MDA-MB-231 > 100 µM | UO-31 > 100 µM | CCRF-CEM > 100 µM | SN12C > 100 µM | SNB-19 > 100 µM | NCI/ADR-RES > 100 µM | RPMI-8226 > 100 µM | A549 > 100 µM | SR > 100 µM | COLO 205 > 100 µM | OVCAR-4 > 100 µM | T47D > 100 µM | A498 > 100 µM | NCI-H226 > 100 µM | UACC-62 > 100 µM | ACHN > 100 µM | HCC 2998 > 100 µM | OVCAR-8 > 100 µM | Malme-3M > 100 µM | HT-29 > 100 µM | SF-539 > 100 µM | HCT-116 > 100 µM | NCI-H460 > 100 µM | OVCAR-3 7.08 µM | SK-MEL-28 > 100 µM | SK-OV-3 > 100 µM | SK-MEL-5 > 100 µM | SW-620 > 100 µM | LOX IMVI > 100 µM | UACC-257 > 100 µM | MOLT-4 > 100 µM | IGROV-1 > 100 µM | HOP-62 > 100 µM | EKVX > 100 µM | OVCAR-5 > 100 µM | RXF 393 > 100 µM | PC-3 > 100 µM
> 100 µM: HCT-15

COCCN(C(=O)c1ccccc1)C1CCC(=O)c2[nH]c3ccccc3c21 (stereo unspecified)
inactive: SF-268 9.12 µM | DU-145 14.7 µM | U-251 2.08 µM | 786-0 3.4 µM | TK-10 20.3 µM | HL-60 8.87 µM | BT-549 2.7 µM | KM12 8.41 µM | K562 3.85 µM | MDA-MB-435 6.87 µM | NCI-H522 2.59 µM | Hs-578T 15.5 µM | SNB-75 5.62 µM | MCF7 6.27 µM | SF-295 > 41 µM | NCI-H23 17.7 µM | MDA-MB-231 4.23 µM | UO-31 9.71 µM | CCRF-CEM 3.64 µM | SN12C 7.85 µM | SK-MEL-2 5.38 µM | SNB-19 11.2 µM | NCI/ADR-RES 19.3 µM | RPMI-8226 17.7 µM | A549 15.6 µM | SR 3.2 µM | COLO 205 15.5 µM | OVCAR-4 6.81 µM | T47D 16.2 µM | A498 19.1 µM | NCI-H226 6.28 µM | UACC-62 17.8 µM | ACHN 16.7 µM | HCC 2998 17.1 µM | OVCAR-8 6.85 µM | Malme-3M 7.21 µM | HT-29 9.98 µM | SF-539 7.1 µM | HCT-116 13.1 µM | NCI-H460 12.8 µM | OVCAR-3 12.5 µM | M14 7.11 µM | SK-MEL-28 6.07 µM | SK-OV-3 15.5 µM | SK-MEL-5 7.14 µM | SW-620 8.28 µM | LOX IMVI > 21.1 µM | UACC-257 > 46.9 µM | MOLT-4 6.64 µM | HOP-92 12.1 µM | IGROV-1 3.65 µM | HOP-62 5.22 µM | EKVX 10.7 µM | OVCAR-5 16.9 µM | RXF 393 5.83 µM | CAKI-1 4.58 µM | PC-3 5.25 µM
16.4 µM: HCT-15
